Source: US20020068367A1, “Linker and method for solid phase combinatorial synthesis” (priority 2000, published 2002)
Where “and” joins values, the source holds several entries; their conditions need not be identical. Equal entries are not always repeated.

Target: T1, fluorescein-streptavidin (Streptomyces avidinii, UniProt P22629)
T1 construct: purchased Calbiochem-Novabiochem Corp., La Jolla, Calif; 189734
Assay: Standard protein-binding assay: fluorescein-streptavidin binding to linker on streptavidin-coated 96-well plates
Source text: Referring to the drawings, and particularly to FIG. 1, generic reactions illustrating two variations of the screening system of the present invention are shown. FIGS. 1a-1d illustrate the generic System 1 reaction wherein a compound comprised of a tether connecting biotin with a chemical compound containing a nitrophenyl group is applied to a streptavidin coated solid phase. The amount of fluorescein-protein complex (c), where the exemplary protein is fluorescein-anti-DNP antibody, bound to the biotin-tether-nitrophenyl complex is characterized by detecting the magnitude of fluorescence emission in each individual well at the completion of the reaction. Similarly, FIG. 1e-1h illustrates the generic System 2 reaction wherein a tether connects 2 biotin groups together and streptavidin is coated on the solid phase. As in the System 1 reaction, the amount of fluorescein-protein complex (g), where the exemplary protein is fluorescein-streptavidin, bound to the biotin-tether-biotin complex is characterized through the detection of fluorescence emissions in each individual well at the completion of the reaction.
In the quantification of the interaction between fluoresceinated-proteins and linkers is characterized by detecting the magnitude of fluorescence emissions in each individual well at the completion of standard protein-binding assay procedures.
A standard protein-binding assay comprises a multi-step process in which strepeavidin pre-treated 96-well plates are exposed to a solution containing linker followed by exposure to a solution containing fluorescein-labeled protein. The 96-well plates are coated with a commercially available streptavidin solution (cat #BPS00100; Xenopore Corp., Hawthorne, N.J.) and then pre-incubated with 300 μl PBS buffer for 10 minutes at room temperature. To complete the pre-incubation process, the PBS buffer is discarded and the plates are further washed five times with water. Once the plate is sufficiently washed, add to the wells 100 μl of pre-mixed binding buffer containing the desired linker, the preparation of which is as described above. After addition of the linker solution, the plate is incubated at 37° C. for one hour. Upon completion of incubation, the linker solution is discarded and the plate is washed with five changes of water. For the fifth step of the assay process, 100 μl of a premixed reaction solution containing 1 M Tris, 0.5 M NaCl and the fluorescein-labeled proteins are added to selected wells of the plate with bound linker. The fluorescein conjugated proteins, anti-dinitrophenyl antibody (rabbit IgG fraction, cat #A-6423) (anti-DNP) and streptavidin (cat #189734) are commercially available from Molecular Probes, Inc., Eugene, Oreg. and Calbiochem Inc., San Diego, Calif. Upon addition of the protein solutions, the plate is further incubated at 37° C. for one hour. Following the incubation period, the reacting solution in each well is discarded and the wells are washed with five changes of 1 M Tris or 30 changes of water. After this final washing step, 250 μl of elution buffer containing 0.5 mM NaOH, methanol and 20 mM EDTA is added to each well and the plate is read using a Spectra MAX Gemini fluorescein plate reader (Molecular Devices Corp., Sunnyvale, Calif.).
Using the standard protein-binding assay described above, linkers 1-7 are evaluated for their ability to bind fluorescein-streptavidin or fluorescein-anti-DNP. The detection of fluorescence emission beyond that of the control would indicate that the fluorescein labeled protein has bound to the corresponding linker. Lack of fluorescence emission would indicate that either the linker or the fluorescein-bound proteins are absent, or that an improper linker was used. This may be interpreted as meaning that the protein of interest, in this exemplary example streptavidin or anti-DNP, “recognizes” the particular library compound being used in the experiment. […]

[1] = Table 5, linker 3 50 nmol, streptavidin-fluorescein 100 pmol
[2] = [Linker] 3 2.5 nmol, fluorescein-streptavidin 100 pmol
[3] = [Linker] 3 5.0 nmol, fluorescein-streptavidin 100 pmol
[4] = [Linker] 3 25.0 nmol, fluorescein-streptavidin 100 pmol
[5] = [Linker] 3 50.0 nmol, fluorescein-streptavidin 100 pmol
[6] = [Linker] 3 250.0 nmol, fluorescein-streptavidin 100 pmol
[7] = [Linker] 3 500.0 nmol, fluorescein-streptavidin 100 pmol
[8] = [Linker] 3 2500.0 nmol, fluorescein-streptavidin 100 pmol
[9] = [Linker] 3 5000.0 nmol, fluorescein-streptavidin 100 pmol
[10] = linker 3 50 nmol, [STREP] 0 pmol (linker only)
[11] = linker 3 50 nmol, [STREP] 0.15 pmol
[12] = linker 3 50 nmol, [STREP] 0.3 pmol
[13] = linker 3 50 nmol, [STREP] 1.0 pmol
[14] = linker 3 50 nmol, [STREP] 3.0 pmol
[15] = linker 3 50 nmol, [STREP] 15.0 pmol
[16] = linker 3 50 nmol, [STREP] 30.0 pmol
[17] = linker 3 50 nmol, [STREP] 45.0 pmol
[18] = linker 3 50 nmol, [STREP] 60.0 pmol

T1 sequence (P22629 25-183): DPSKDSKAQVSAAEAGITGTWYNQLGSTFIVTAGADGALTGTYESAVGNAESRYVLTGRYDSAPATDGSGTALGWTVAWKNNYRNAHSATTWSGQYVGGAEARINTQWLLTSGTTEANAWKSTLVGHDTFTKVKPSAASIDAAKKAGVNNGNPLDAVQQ

O=C(CCCCCNC(=O)CCCCCNC(=O)CCCCC1SCC2NC(=O)NC21)NCCCCCNC(=O)CCCCCNC(=O)CCCCC1SCC2NC(=O)NC21 (stereo not drawn) [Linker 3]
Increase in fluorescence emission (100-fold increase in linker 3 concentration (0.5 nmol to 50 nmol)): no significant increase | Increase in fluorescence emission (100-fold increase in linker concentration at much higher concentrations of linker 3): 2 fold | Fluorescence emission, mean of Columns 1-3 [1]: 479.29 | Fluorescence emission, sum of Columns 1-2 [1]: 987.05 | Fluorescence emission, sum of Columns 1-3 [1]: 1437.9 | Fluorescence emission (Table 5, linker 3 50 nmol, streptavidin-fluorescein 100 pmol, replicates): 492.22 and 494.83 and 450.81 | Detected fluorescence emission (Well #1, linker 3 50 nmol, streptavidin-fluorescein 100 pmol): about 500 | Fluorescence emission, mean of Columns 1-3 [2]: 181.30 | Fluorescence emission, sum of Columns 1-2 [2]: 406.14 | Fluorescence emission, sum of Columns 1-3 [2]: 543.91 | Fluorescence emission ([Linker] 3 2.5 nmol, fluorescein-streptavidin 100 pmol, replicates): 230.68 and 175.46 and 137.77 | Fluorescence emission, mean of Columns 1-3 [3]: 193.80 | Fluorescence emission, sum of Columns 1-2 [3]: 467.1 | Fluorescence emission, sum of Columns 1-3 [3]: 581.41 | Fluorescence emission ([Linker] 3 5.0 nmol, fluorescein-streptavidin 100 pmol, replicates): 239.14 and 227.96 and 114.31 | Fluorescence emission, mean of Columns 1-3 [4]: 211.91 | Fluorescence emission, sum of Columns 1-2 [4]: 469.52 | Fluorescence emission, sum of Columns 1-3 [4]: 635.73 | Fluorescence emission ([Linker] 3 25.0 nmol, fluorescein-streptavidin 100 pmol, replicates): 223.84 and 245.68 and 166.21 | Fluorescence emission, mean of Columns 1-3 [5]: 280.99 | Fluorescence emission, sum of Columns 1-2 [5]: 502.51 | Fluorescence emission, sum of Columns 1-3 [5]: 782.96 | Fluorescence emission ([Linker] 3 50.0 nmol, fluorescein-streptavidin 100 pmol, replicates): 226.70 and 275.81 and 280.45 | Fluorescence emission, mean of Columns 1-3 [6]: 313.49 | Fluorescence emission, sum of Columns 1-2 [6]: 597.65 | Fluorescence emission, sum of Columns 1-3 [6]: 940.47 | Fluorescence emission ([Linker] 3 250.0 nmol, fluorescein-streptavidin 100 pmol, replicates): 261.21 and 336.44 and 342.82 | Fluorescence emission, mean of Columns 1-3 [7]: 352.86 | Fluorescence emission, sum of Columns 1-2 [7]: 703.68 | Fluorescence emission, sum of Columns 1-3 [7]: 1058.6 | Fluorescence emission ([Linker] 3 500.0 nmol, fluorescein-streptavidin 100 pmol, replicates): 325.94 and 377.74 and 354.91 | Fluorescence emission, mean of Columns 1-3 [8]: 457.81 | Fluorescence emission, sum of Columns 1-2 [8]: 920.68 | Fluorescence emission, sum of Columns 1-3 [8]: 1373.4 | Fluorescence emission ([Linker] 3 2500.0 nmol, fluorescein-streptavidin 100 pmol, replicates): 474.19 and 446.49 and 452.76 | Fluorescence emission, mean of Columns 1-3 [9]: 440.22 | Fluorescence emission, sum of Columns 1-2 [9]: 883.57 | Fluorescence emission, sum of Columns 1-3 [9]: 1320.7 | Fluorescence emission ([Linker] 3 5000.0 nmol, fluorescein-streptavidin 100 pmol, replicates): 447.77 and 435.80 and 437.09 | Effect on binding capacity of fluorescein-streptavidin (generic System 2): significantly enhances the binding capacity | Fluorescence emission (linker 3 0.5 nmol, fluorescein-streptavidin 100 pmol): 239.14 | Fluorescence emission, mean of Columns 1-3 [10]: 150.00 and 142.49 | Fluorescence emission, sum of Columns 1-2 [10]: 311.12 and 280.3 | Fluorescence emission, sum of Columns 1-3 [10]: 450.01 and 427.46 | Fluorescence emission (linker 3 50 nmol, [STREP] 0 pmol (linker only), replicates): 158.28 and 152.84 and 138.89 and 156.28 and 124.02 and 147.16 | Fluorescence emission, mean of Columns 1-3 [11]: 147.68 | Fluorescence emission, sum of Columns 1-2 [11]: 276.44 | Fluorescence emission, sum of Columns 1-3 [11]: 443.03 | Fluorescence emission (linker 3 50 nmol, [STREP] 0.15 pmol, replicates): 110.75 and 110.57 and 165.87 and 166.59 | Fluorescence emission, mean of Columns 1-3 [12]: 129.73 | Fluorescence emission, sum of Columns 1-2 [12]: 226.97 | Fluorescence emission, sum of Columns 1-3 [12]: 389.19 | Fluorescence emission (linker 3 50 nmol, [STREP] 0.3 pmol, replicates): 72.275 and 154.69 and 162.22 | Fluorescence emission, mean of Columns 1-3 [13]: 197.16 | Fluorescence emission, sum of Columns 1-2 [13]: 389.28 | Fluorescence emission, sum of Columns 1-3 [13]: 591.47 | Fluorescence emission (linker 3 50 nmol, [STREP] 1.0 pmol, replicates): 167.36 and 221.92 and 202.19 | Fluorescence emission, mean of Columns 1-3 [14]: 253.59 | Fluorescence emission, sum of Columns 1-2 [14]: 542.04 | Fluorescence emission, sum of Columns 1-3 [14]: 760.78 | Fluorescence emission (linker 3 50 nmol, [STREP] 3.0 pmol, replicates): 237.61 and 304.43 and 218.74 | Fluorescence emission, mean of Columns 1-3 [15]: 257.02 | Fluorescence emission, sum of Columns 1-2 [15]: 482.28 | Fluorescence emission, sum of Columns 1-3 [15]: 771.07 | Fluorescence emission (linker 3 50 nmol, [STREP] 15.0 pmol, replicates): 220.15 and 262.13 and 288.79 | Fluorescence emission, mean of Columns 1-3 [16]: 326.19 | Fluorescence emission, sum of Columns 1-2 [16]: 601.80 | Fluorescence emission, sum of Columns 1-3 [16]: 978.58 | Fluorescence emission (linker 3 50 nmol, [STREP] 30.0 pmol, replicates): 395.67 and 206.13 and 376.78 | Fluorescence emission, mean of Columns 1-3 [17]: 474.38 | Fluorescence emission, sum of Columns 1-2 [17]: 994.49 | Fluorescence emission, sum of Columns 1-3 [17]: 1423.2 | Fluorescence emission (linker 3 50 nmol, [STREP] 45.0 pmol, replicates): 454.46 and 540.03 and 428.66 | Fluorescence emission, mean of Columns 1-3 [18]: 463.43 | Fluorescence emission, sum of Columns 1-2 [18]: 959.13 | Fluorescence emission, sum of Columns 1-3 [18]: 1390.3 | Fluorescence emission (linker 3 50 nmol, [STREP] 60.0 pmol, replicates): 548.75 and 410.38 and 431.15 | Increase in fluorescence emission (linker 3, 100-fold increase in fluorescein-streptavidin concentration (0.15 to 15 pm)): 2 fold
